Assay results published in ChEMBL document CHEMBL5154643, “Design of a "Two-in-One" Mutant-Selective Epidermal Growth Factor Receptor Inhibitor That Spans the Orthosteric and Allosteric Sites” (J Med Chem, 2022).

Test: Apparent permeability across apical to basolateral side in human Caco-2 cells monolayer
Type: ADME, cell-based

Papp | SMILES
Impermeable | CSc1nc(-c2cccc(NC(=O)c3c(F)ccc(O)c3CN3C(=O)c4ccccc4C3=O)c2)c(-c2ccnc(NC(C)=O)c2)[nH]1
Impermeable | C=CC(=O)Nc1ccc(OC)c(Nc2cc(-c3[nH]c(SC)nc3-c3cccc(NC(=O)c4c(F)ccc(O)c4CN4C(=O)c5ccccc5C4=O)c3)ccn2)c1
